Test results as given in patent US10406151B2, “Method of inducing autophagy” (Mitsubishi Gas Chemical Company, Inc., priority 2016, dated 2019).

Tests used:
HeLa cells [1] = test: Evaluation of autophagy by fluorescence microscopy with Cyto-ID autophagy detection kit; type: cell-based; conditions: culture for 1 day, fluorescence intensity same as rapamycin of the kit as reference
Procedure: (§1) The cells were cultured at 37° C. under 5% CO2. The culture medium used was D-MEM (Invitrogen-Gibco) to which 10% fetal bovine serum was added.
(§2) After culture for 1 day, the range in which autophagy occurred was measured by fluorescence microscopic observation using a Cyto-ID (registered trademark) autophagy detection kit (Cosmo Bio Co., Ltd.). […] Similarly, the 50% cell mortality concentration was also determined from the slope using a Cell Counting Kit-8 (Dojindo Laboratories Co., Ltd.), which is kit for measuring cell counts.

HeLa cells [2] = conditions: for 50% cell mortality concentration: culture for 1 day, determined from the slope, Cell Counting Kit-8
Procedure: as §1, §2

| Compound | concentration inducing autophagy equal to rapamycin reference (HeLa cells [1]) | 50% cell mortality concentration (HeLa cells [2]) | toxicity among the pyrroloquinoline quinone species (in words) (HeLa cells [2]; conclusion from Table 1) |
| --- | --- | --- | --- |
| COC(=O)c1cc(C(=O)OC)c2c(n1)C(=O)C(=O)c1cc(C(=O)OC)[nH]c1-2 [Example 2, Trimethyl 4,5-Dioxo-4,5-dihydro-1H-pyrrolo[2,3-f]quinoline-2,7,9-tricarboxylate] | 0.8 mg/L | 16 mg/L | – |
| O=C(O)c1cc(C(=O)O)c2c(n1)C(=O)C(=O)c1cc(C(=O)O)[nH]c1-2 [Example 1, Disodium 4,5-Dioxo-4,5-dihydro-1H-pyrrolo[2,3-f]quinoline-2,7,9-tricarboxylic Acid] | 0.8 mg/L | 123 mg/L | – |
| COC(=O)c1cc(C(=O)OC)c2c(n1)C(=O)C(OC)(OC)c1cc(C(=O)OC)[nH]c1-2 [Example 5, Trimethyl 4,4-Dimethoxy-5-oxo-4,5-dihydro-1H-pyrrolo[2,3-f]quinoline-2,7,9-tricarboxylate] | 0.8 mg/L | at least 1000 mg/L | lowest toxicity |
| O=C(O)c1cc(C(=O)O)c2c(n1)c(O)c(O)c1cc(C(=O)O)[nH]c12 [Example 3, 4,5-Dihydroxy-1H-pyrrolo[2,3-f]quinoline-2,7,9-tricarboxylic Acid] | 12.5 mg/L | 48 mg/L | – |
| C[S+](C)[O-] [comparative example 1, dimethyl sulfoxide, reference compound] | at least 1000 mg/L | 674 mg/L | – |
